Assays:
Details in all cases: 72 h
U2OS [1] = assay: cell viability relative to DMSO; higher = less toxic
Vero E6 [2] = assay: as above
Calu-3 [3] = assay: as above
Caco-2 [4] = assay: as above
HepG2 [5] = assay: as above
U2OS [6] = assay: drug sensitivity score (DSS) for viability; higher = more toxic; extreme values may be limits of the assay
Vero E6 [7] = assay: as above
Calu-3 [8] = assay: as above
Caco-2 [9] = assay: as above
HepG2 [10] = assay: as above
U2OS [11] = assay: relative viability EC50 (midpoint between 100% and the lowest measured viability); higher = less toxic
Vero E6 [12] = assay: as above
Calu-3 [13] = assay: as above
Caco-2 [14] = assay: as above
HepG2 [15] = assay: as above

SMILES	cell viability (U2OS [1]; 1 nM) [%]	cell viability (U2OS [1]; 10 nM) [%]	cell viability (U2OS [1]; 100 nM) [%]	cell viability (U2OS [1]; 1000 nM) [%]	cell viability (U2OS [1]; 10000 nM) [%]	cell viability (Vero E6 [2]; 1 nM) [%]	cell viability (Vero E6 [2]; 10 nM) [%]	cell viability (Vero E6 [2]; 100 nM) [%]	cell viability (Vero E6 [2]; 1000 nM) [%]	cell viability (Vero E6 [2]; 10000 nM) [%]	cell viability (Calu-3 [3]; 1 nM) [%]	cell viability (Calu-3 [3]; 10 nM) [%]	cell viability (Calu-3 [3]; 100 nM) [%]	cell viability (Calu-3 [3]; 1000 nM) [%]	cell viability (Calu-3 [3]; 10000 nM) [%]	cell viability (Caco-2 [4]; 1 nM) [%]	cell viability (Caco-2 [4]; 10 nM) [%]	cell viability (Caco-2 [4]; 100 nM) [%]	cell viability (Caco-2 [4]; 1000 nM) [%]	cell viability (Caco-2 [4]; 10000 nM) [%]	cell viability (HepG2 [5]; 1 nM) [%]	cell viability (HepG2 [5]; 10 nM) [%]	cell viability (HepG2 [5]; 100 nM) [%]	cell viability (HepG2 [5]; 1000 nM) [%]	cell viability (HepG2 [5]; 10000 nM) [%]	drug sensitivity score (U2OS [6])	drug sensitivity score (Vero E6 [7])	drug sensitivity score (Calu-3 [8])	drug sensitivity score (Caco-2 [9])	drug sensitivity score (HepG2 [10])	relative viability EC50 (U2OS [11]) [µM]	relative viability EC50 (Vero E6 [12]) [µM]	relative viability EC50 (Calu-3 [13]) [µM]	relative viability EC50 (Caco-2 [14]) [µM]	relative viability EC50 (HepG2 [15]) [µM]
C=CCNC1=C2C[C@@H](C)C[C@H](OC)[C@H](O)[C@@H](C)/C=C(\C)[C@H](OC(N)=O)[C@@H](OC)/C=C\C=C(/C)C(=O)NC(=CC1=O)C2=O [tanespimycin]	101	102	73.2	4.8	1.8	108	100	104	51.4	26.5	108	105	83.3	40.2	38.2	93.6	98.8	101	71.8	29.2	113	80.2	1.9	1.3	2.2	21	9.8	13.5	7.7	33.3	0.164	0.768	0.161	1.18	0.0174
CNC(=N)NCCC[C@H](N)C(=O)O [targinine]	105	96.9	101	101	102	96.3	98.1	95.9	99.6	81.3	96.7	96.9	96.8	111	99.2	98.1	98	101	96.8	96	94.1	103	96.9	98.6	96.3	0	0.5	0	0	0	> 10	> 10	> 10	> 10	> 10
CCOC(=O)Nc1ccc2c(c1)N(C(=O)CN(C)C)c1ccccc1CC2 [tiracizine]	99.9	104	96.5	101	99.7	99.8	99.2	97.3	97.9	97.8	107	103	87	85	106	106	105	105	98.9	100	106	95.4	111	87.6	102	0	0	0	0	0	> 10	> 10	> 10	> 10	> 10
